# Data: US20040009172A1, “Use of anti-TNFalpha antibodies and another drug” (priority 2002, published 2004)
# Tests used:
# [1] = test system: patients with rheumatoid arthritis (RA); test: Multicenter, randomized, double-blind, placebo-controlled study of D2E7 in RA patients: safety (adverse events); assay type: in vivo, human
# Description: (§1) A study was designed and conducted to investigate the safety and efficacy of D2E7 40 mg administered every other week to patients with RA whose disease was not adequately treated with their current anti-rheumatic therapies (including accepted DMARDs, NSAIDs, or steroids); and was a multicenter, randomized, double-blind, placebo-controlled study in which D2E7 was subcutaneously (sc) administered every other week for up to 24 weeks at a dosage of 40 mg to patients with rheumatoid arthritis (RA) whose disease was not adequately treated with their current anti-rheumatic therapies. Anti-rheumatic therapies permitted for use during the study included accepted disease-modifying anti-rheumatic drugs (DMARDs), non-steroidal anti-inflammatory drugs (NSAIDs), or steroids. Despite using anti-rheumatic therapies, patients must have had active disease documented at both the screening and baseline visits. Doses of DMARDs, as well as concomitant prednisone (<10 mg daily) and NSAIDs, were required to be stable for at least 28 days prior to screening. Additionally, patients using azathioprine and/or cyclosporine discontinued these therapies and underwent a 28-day washout period before screening. At the baseline visit, patients were randomized to D2E7 or placebo and this signified the start of the 24-week placebo-controlled period. Patients were examined at Weeks 2, 4, 8, 12, 16, 20 and 24 of the study.
# D2E7 was supplied in 2-mL glass vials (the concentration of D2E7 in each vial was 25 mg/mL (ie, 40 mg/1.6 mL)), each containing 40 mg D2E7/1.6 mL solution for injection. D2E7 was manufactured and supplied by Ebewe Arzneimittel GmbH, in Unterach, Austria. McKesson, FIBOC Biosciences, in Rockville, Md., USA, packaged, labeled, stored and distributed D2E7 to the investigators at, each site for this study. […]
# Adverse events were summarized by frequency, percentage, as well as the rate per 100 patient-years. […] All other efficacy variables were summarized descriptively (statistical characteristics, frequencies, percentages, confidence intervals) and analyzed by exploratory two-sided statistical tests. […]
# [2] = test system: patients with rheumatoid arthritis (RA); test: Multicenter, randomized, double-blind, placebo-controlled study of D2E7 in RA patients: efficacy (ACR response); assay type: in vivo, human
# Description: as §1
# Patients were inadequately treated with their current anti-rheumatic therapies and had active RA, defined as ≧6 swollen joints and ≧9 tender joints. Additionally, patients using glucocorticoids were allowed into the study if the dose was equivalent to ≦10 mg/day prednisone and had remained unchanged for at least 28 days.
# D2E7 was supplied in 2-mL glass vials (the concentration of D2E7 in each vial was 25 mg/mL (ie, 40 mg/1.6 mL)), each containing 40 mg D2E7/1.6 mL solution for injection. D2E7 was manufactured and supplied by Ebewe Arzneimittel GmbH, in Unterach, Austria. McKesson, FIBOC Biosciences, in Rockville, Md., USA, packaged, labeled, stored and distributed D2E7 to the investigators at, each site for this study. D2E7 was self-administered as a single sc injection of 40 mg every other week for a period of 24 weeks. The concentration of study drug was 25 mg/mL. Placebo/1.6 mL (citrate-phosphate buffer solution without D2E7) was self-administered as a single sc injection every other week for a period of 24 weeks.
# Patients continued to receive their pre-study dose of anti-rheumatic therapies. Anti-rheumatic therapies permitted for use during the study included DMARDs (hydroxychloroquine, leflunomide, methotrexate, parenteral gold, oral gold and sulfasalazine, or any combination of these or other DMARDs), NSAIDs and steroids. Doses of these DMARDs as well as concomitant prednisone (≦10 mg daily) and NSAIDs must have been stable for at least 28 days prior to screening.
# Efficacy endpoints included: ACR20 response at Week 24; ACR50 and ACR70 at Week 24; AUC (area under the curve) of ACR20, ACR50 and ACR70 from baseline to Week 24; time to first response for ACR20, ACR50 and ACR70; numeric ACR (ACR-N); change from baseline to Week 24 in components of the ACR response criteria (tender joint count [TJC], swollen joint count [SJC], patient assessment of pain, patient and physician global assessments of disease activity, HAQ and C-reactive protein [CRP]); change from baseline to Week 24 in physical function as measured by SF-36, health utilities index (HUI), functional assessment of chronic illness therapy (FACIT) fatigue scale; Euro-QoL questionnaire; multidimensional assessment of fatigue (MAF) scale; subject summary survey; incidence and time to dose increases in background DMARD and/or steroid therapy; institution of new DMARD therapy for lack of clinical response; rheumatoid factor (RF); and morning stiffness.
# Adverse events were summarized by frequency, percentage, as well as the rate per 100 patient-years. […]
# [3] = added to existing DMARD therapies
# [4] = Non-responder, full analysis set excluding Site #7, N = 315
# [5] = Week 2, full analysis set excluding Site #7, N = 315
# [6] = Week 4, full analysis set excluding Site #7, N = 315
# [7] = Week 8, full analysis set excluding Site #7, N = 315
# [8] = Week 12, full analysis set excluding Site #7, N = 315
# [9] = Week 16, full analysis set excluding Site #7, N = 315
# [10] = Week 20, full analysis set excluding Site #7, N = 315
# [11] = Week 24, full analysis set excluding Site #7, N = 315
# [12] = Week 24, subgroup Three or more DMARDs
# [13] = Week 24, subgroup concomitant Antimalarial
# [14] = Week 24, subgroup concomitant Leflunomide
# [15] = Week 24, subgroup concomitant Methotrexate
# [16] = Week 24, subgroup concomitant Sulfasalazine
substance,measurement,setting,value
"D2E7: recombinant, neutralizing human anti-hTNFα antibody; VL region SEQ ID NO: 1, VH region SEQ ID NO: 2",Safety,"[1]; 40 mg, alone or in combination with other DMARDs",safe
same,Incidence or profile of adverse events,[1]; [3],not associated with any major changes in the incidence or profile of adverse events
same,Tolerability,[1]; [3],generally well-tolerated
same,"ACR50 response, % of patients responding","[2]; LOCF Week 24, N = 315",(30.2) %
same,"ACR50 response, N of patients responding","[2]; LOCF Week 24, N = 315",95
same,"ACR70 response, % of patients responding","[2]; LOCF Week 24, N = 315",(15.2) %
same,"ACR70 response, N of patients responding","[2]; LOCF Week 24, N = 315",48
same,ACR-N Mean ± SD,"[2]; LOCF Week 24, N = 315",21.2 ± 55.3
same,"Time to response ACR20: % of patients, Non-responder",[2]; [4],(19.4) %
same,"Time to response ACR20: N of patients, Non-responder",[2]; [4],61
same,"Time to response ACR50: % of patients, Non-responder",[2]; [4],(50.8) %
same,"Time to response ACR50: N of patients, Non-responder",[2]; [4],160
same,"Time to response ACR70: % of patients, Non-responder",[2]; [4],(73.3) %
same,"Time to response ACR70: N of patients, Non-responder",[2]; [4],231
same,Time to response ACR20: % of patients responding for the first time,[2]; [5],(33.7) %
same,Time to response ACR20: N of patients responding for the first time,[2]; [5],106
same,Time to response ACR50: % of patients responding for the first time,[2]; [5],(9.8) %
same,Time to response ACR50: N of patients responding for the first time,[2]; [5],31
same,Time to response ACR70: % of patients responding for the first time,[2]; [5],(2.9) %
same,Time to response ACR70: N of patients responding for the first time,[2]; [5],9
same,Time to response ACR20: % of patients responding for the first time,[2]; [6],(16.2) %
same,Time to response ACR20: N of patients responding for the first time,[2]; [6],51
same,Time to response ACR50: % of patients responding for the first time,[2]; [6],(9.8) %
same,Time to response ACR50: N of patients responding for the first time,[2]; [6],31
same,Time to response ACR70: % of patients responding for the first time,[2]; [6],(3.8) %
same,Time to response ACR70: N of patients responding for the first time,[2]; [6],12
same,Time to response ACR20: % of patients responding for the first time,[2]; [7],(16.5) %
same,Time to response ACR20: N of patients responding for the first time,[2]; [7],52
same,Time to response ACR50: % of patients responding for the first time,[2]; [7],(10.8) %
same,Time to response ACR50: N of patients responding for the first time,[2]; [7],34
same,Time to response ACR70: % of patients responding for the first time,[2]; [7],(3.8) %
same,Time to response ACR70: N of patients responding for the first time,[2]; [7],12
same,Time to response ACR20: % of patients responding for the first time,[2]; [8],(5.4) %
same,Time to response ACR20: N of patients responding for the first time,[2]; [8],17
same,Time to response ACR50: % of patients responding for the first time,[2]; [8],(6.3) %
same,Time to response ACR50: N of patients responding for the first time,[2]; [8],20
same,Time to response ACR70: % of patients responding for the first time,[2]; [8],(5.7) %
same,Time to response ACR70: N of patients responding for the first time,[2]; [8],18
same,Time to response ACR20: % of patients responding for the first time,[2]; [9],(4.1) %
same,Time to response ACR20: N of patients responding for the first time,[2]; [9],13
same,Time to response ACR50: % of patients responding for the first time,[2]; [9],(6.3) %
same,Time to response ACR50: N of patients responding for the first time,[2]; [9],20
same,Time to response ACR70: % of patients responding for the first time,[2]; [9],(5.7) %
same,Time to response ACR70: N of patients responding for the first time,[2]; [9],18
same,Time to response ACR20: % of patients responding for the first time,[2]; [10],(3.8) %
same,Time to response ACR20: N of patients responding for the first time,[2]; [10],12
same,Time to response ACR50: % of patients responding for the first time,[2]; [10],(2.9) %
same,Time to response ACR50: N of patients responding for the first time,[2]; [10],9
same,Time to response ACR70: % of patients responding for the first time,[2]; [10],(2.2) %
same,Time to response ACR70: N of patients responding for the first time,[2]; [10],7
same,"ACR20 response, % of patients","[2]; Week 24, 40 mg sc every other week added to current anti-rheumatic therapies, N = 315",53.0%
same,"ACR20 response, N of patients","[2]; Week 24, 40 mg sc every other week, N = 315",167
same,"ACR50 response, N of patients responding","[2]; Week 24, N = 315",92
same,"ACR70 response, N of patients responding","[2]; Week 24, N = 315",47
same,ACR-N Mean ± SD,"[2]; Week 24, N = 315",20.3 ± 55.2
same,Time to response ACR20: % of patients responding for the first time,[2]; [11],(1.0) %
same,Time to response ACR20: N of patients responding for the first time,[2]; [11],3
same,Time to response ACR50: % of patients responding for the first time,[2]; [11],(3.2) %
same,Time to response ACR50: N of patients responding for the first time,[2]; [11],10
same,Time to response ACR70: % of patients responding for the first time,[2]; [11],(2.5) %
same,Time to response ACR70: N of patients responding for the first time,[2]; [11],8
same,ACR20 % Response,"[2]; Week 24, subgroup No DMARD",50.0%
same,ACR50 %,"[2]; Week 24, subgroup No DMARD",27.8%
same,ACR70 %,"[2]; Week 24, subgroup No DMARD",18.5%
same,ACR-N Mean ± SD,"[2]; Week 24, subgroup No DMARD",12.8 ± 68.2
same,ACR20 % Response,"[2]; Week 24, subgroup One DMARD",55.4%
same,ACR50 %,"[2]; Week 24, subgroup One DMARD",31.0%
same,ACR70 %,"[2]; Week 24, subgroup One DMARD",16.3%
same,ACR-N Mean ± SD,"[2]; Week 24, subgroup One DMARD",22.8 ± 56.0
same,ACR20 % Response,"[2]; Week 24, subgroup Other DMARDs",52.0%
same,ACR50 %,"[2]; Week 24, subgroup Other DMARDs",24.0%
same,ACR70 %,"[2]; Week 24, subgroup Other DMARDs",16.0%
same,ACR-N Mean ± SD,"[2]; Week 24, subgroup Other DMARDs",25.3 ± 33.9
same,ACR20 % Response,[2]; [12],45.5%
same,ACR50 %,[2]; [12],18.2%
same,ACR70 %,[2]; [12],9.1%
same,ACR-N Mean ± SD,[2]; [12],20.1 ± 37.2
same,ACR20 % Response,"[2]; Week 24, subgroup Two DMARDs",50.0%
same,ACR50 %,"[2]; Week 24, subgroup Two DMARDs",27.3%
same,ACR70 %,"[2]; Week 24, subgroup Two DMARDs",9.1%
same,ACR-N Mean ± SD,"[2]; Week 24, subgroup Two DMARDs",19.5 ± 42.3
same,ACR20 % Response,[2]; [13],50.7%
same,ACR50 %,[2]; [13],29.3%
same,ACR70 %,[2]; [13],12.0%
same,ACR-N Mean ± SD,[2]; [13],20.0 ± 45.5
same,ACR20 % Response,[2]; [14],33.3%
same,ACR50 %,[2]; [14],14.3%
same,ACR70 %,[2]; [14],0.0%
same,ACR-N Mean ± SD,[2]; [14],−0.5 ± 77.5
same,ACR20 % Response,[2]; [15],56.7%
same,ACR50 %,[2]; [15],30.9%
same,ACR70 %,[2]; [15],15.2%
same,ACR-N Mean ± SD,[2]; [15],26.5 ± 42.3
same,ACR20 % Response,[2]; [16],58.6%
same,ACR50 %,[2]; [16],34.5%
same,ACR70 %,[2]; [16],17.2%
same,ACR-N Mean ± SD,[2]; [16],21.4 ± 53.9
same,"Subgroup analyses: ACR20, ACR50, ACR70, ACR-N and their AUC","[2]; concomitant methotrexate, antimalarial treatments, sulfasalazine, other DMARDs, or 0, 1, 2, or ≧3 DMARDs, vs placebo",greater improvement
same,Response compared to placebo,"[2]; in combination with methotrexate, antimalarial treatments, sulfasalazine, other DMARDs, or 0, 1, 2, or ≧3 DMARDs",higher response compared to placebo
same,Improvement in RA,[2]; patients inadequately treated with existing DMARD therapies,significant improvement in RA
same,"Time to response and AUC for ACR20, ACR50, ACR70; AUC for ACR-N; Euro-QoL, RF, MAF scale",[2]; vs placebo,improvement in therapeutic response over placebo
